Assay results published in ChEMBL document CHEMBL1201862, “PubChem BioAssay data set” (2004).
Calls of active or inactive are those of the source.

What was measured:
Cytochrome P450 3A4 = Cytochrome P450 3A4 (Homo sapiens, UniProt P08684);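 further: CYP3A4 tested as one member of a cytochrome P450 panel screen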
Cytochrome P450 1A2 = target: T1, Cytochrome P450 1A2 (Homo sapiens, UniProt P05177);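 further: PubChem cytochrome P450 panel assay, CYP1A2 panel member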
T1 sequence (P05177 whole entry): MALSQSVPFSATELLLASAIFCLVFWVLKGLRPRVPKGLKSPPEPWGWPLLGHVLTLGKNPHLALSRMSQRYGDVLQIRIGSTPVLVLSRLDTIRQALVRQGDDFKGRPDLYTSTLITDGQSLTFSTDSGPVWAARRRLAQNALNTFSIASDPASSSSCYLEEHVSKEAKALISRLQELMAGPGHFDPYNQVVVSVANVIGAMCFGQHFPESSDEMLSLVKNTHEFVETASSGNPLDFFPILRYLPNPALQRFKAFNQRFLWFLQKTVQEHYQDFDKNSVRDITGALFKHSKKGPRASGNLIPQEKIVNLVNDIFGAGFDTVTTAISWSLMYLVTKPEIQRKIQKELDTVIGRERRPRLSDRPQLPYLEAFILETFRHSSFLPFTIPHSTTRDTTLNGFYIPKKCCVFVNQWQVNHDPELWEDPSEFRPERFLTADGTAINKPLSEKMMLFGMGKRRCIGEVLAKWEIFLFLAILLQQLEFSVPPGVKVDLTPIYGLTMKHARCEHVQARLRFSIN

[1] = inhibitors of intracellular T. cruzi replication, confirmation, NIH3T3 host cells, beta-gal luminescence (AID 2044); type: functional, cell-based;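 further: intracellular parasites grown in NIH/3T3 mouse fibroblasts as host cells; luminescent beta-galactosidase reporter signal from transgenic T. cruzi replicating inside host cells; inhibitors lower the luminescence signal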
[2] = cytotoxicity toward NIH3T3 fibroblasts, dose response, counter-screen, cell-based, ATP luminescence, mouse fibroblasts (AID 2010); type: functional;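 further: cells exposed to compound for about 90 hours before reading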
[3] = HEp-2 cell cytotoxicity, dose response, cytotoxicity control for RSV inhibitor project, HTS (AID 2410); type: functional; settings: human respiratory syncytial virus
[4] = Luminescence Cell-Based Dose Retest to Confirm Inhibitors of Cancer Stem Cells. [Related pubchem assays (depositor defined):AID2717, AID2721]; type: functional; settings: Homo sapiens
Cytochrome P450 2C9 = Cytochrome P450 2C9 (Homo sapiens, UniProt P11712)
Chain of Cytochrome P450 2C9 (P11712 whole entry): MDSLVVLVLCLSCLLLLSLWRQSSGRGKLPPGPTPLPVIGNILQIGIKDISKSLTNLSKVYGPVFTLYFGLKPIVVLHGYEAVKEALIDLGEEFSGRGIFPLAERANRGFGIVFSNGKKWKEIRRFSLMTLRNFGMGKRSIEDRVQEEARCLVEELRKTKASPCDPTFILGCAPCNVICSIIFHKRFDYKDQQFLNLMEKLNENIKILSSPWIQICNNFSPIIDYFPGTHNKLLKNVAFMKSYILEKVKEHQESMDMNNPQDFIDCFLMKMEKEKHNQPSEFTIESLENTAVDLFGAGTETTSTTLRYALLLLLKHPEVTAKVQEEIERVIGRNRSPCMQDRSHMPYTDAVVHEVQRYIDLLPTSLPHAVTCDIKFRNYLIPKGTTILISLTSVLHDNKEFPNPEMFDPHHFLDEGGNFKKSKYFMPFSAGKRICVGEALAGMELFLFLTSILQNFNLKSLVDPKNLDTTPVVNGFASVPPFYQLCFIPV

[5] = target: T2, Rac GTPase-activating protein 1 (Homo sapiens, UniProt Q9H0H5); experiment: MgcRacGAP GTPase-activating activity inhibitors, confirmation, biochemical, ADP Hunter fluorescence, primary and confirmatory (AID 624330); type: functional
T2 sequence (Q9H0H5 whole entry): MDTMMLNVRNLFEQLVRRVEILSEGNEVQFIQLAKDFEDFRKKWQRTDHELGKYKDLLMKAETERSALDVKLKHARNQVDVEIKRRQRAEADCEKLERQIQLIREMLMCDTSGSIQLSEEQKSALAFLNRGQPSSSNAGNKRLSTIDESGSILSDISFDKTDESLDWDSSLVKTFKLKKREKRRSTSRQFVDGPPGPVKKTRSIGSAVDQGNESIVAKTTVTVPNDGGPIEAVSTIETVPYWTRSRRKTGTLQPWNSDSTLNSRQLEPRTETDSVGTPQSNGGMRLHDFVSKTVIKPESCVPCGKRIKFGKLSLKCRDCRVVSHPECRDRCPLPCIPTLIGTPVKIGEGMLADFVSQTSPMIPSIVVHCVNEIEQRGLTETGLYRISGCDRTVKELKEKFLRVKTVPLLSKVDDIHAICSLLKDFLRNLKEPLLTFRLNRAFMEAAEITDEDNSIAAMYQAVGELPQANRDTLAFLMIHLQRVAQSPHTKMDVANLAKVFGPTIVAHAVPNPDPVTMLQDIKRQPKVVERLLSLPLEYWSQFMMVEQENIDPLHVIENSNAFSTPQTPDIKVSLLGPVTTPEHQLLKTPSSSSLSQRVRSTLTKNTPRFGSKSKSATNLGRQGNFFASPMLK

[6] = target: T3, RNA-binding protein pos-1 (Caenorhabditis elegans, UniProt G5EF15); experiment: inhibitors of POS-1/mex-3 RNA binding, dose response, biochemical, fluorescence polarization (AID 1964);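 further: purified POS-1 fused to maltose binding protein made in E. coli; potency of compounds blocking POS-1 binding to fluorescent RNA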
T3 sequence (G5EF15 whole entry): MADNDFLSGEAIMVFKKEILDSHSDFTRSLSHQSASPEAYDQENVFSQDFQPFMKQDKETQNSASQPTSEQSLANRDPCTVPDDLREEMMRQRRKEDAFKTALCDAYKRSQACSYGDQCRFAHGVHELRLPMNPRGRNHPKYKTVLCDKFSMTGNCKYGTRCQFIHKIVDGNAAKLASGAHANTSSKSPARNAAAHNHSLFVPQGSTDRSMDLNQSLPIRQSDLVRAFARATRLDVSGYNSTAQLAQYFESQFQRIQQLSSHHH

[7] = target: T4, Zinc finger protein mex-5 (Caenorhabditis elegans, UniProt Q9XUB2); experiment: MEX-5/TCR-2 RNA interaction inhibitors, dose response, biochemical, C. elegans, fluorescence polarization (AID 1960)
T4 sequence (Q9XUB2 whole entry): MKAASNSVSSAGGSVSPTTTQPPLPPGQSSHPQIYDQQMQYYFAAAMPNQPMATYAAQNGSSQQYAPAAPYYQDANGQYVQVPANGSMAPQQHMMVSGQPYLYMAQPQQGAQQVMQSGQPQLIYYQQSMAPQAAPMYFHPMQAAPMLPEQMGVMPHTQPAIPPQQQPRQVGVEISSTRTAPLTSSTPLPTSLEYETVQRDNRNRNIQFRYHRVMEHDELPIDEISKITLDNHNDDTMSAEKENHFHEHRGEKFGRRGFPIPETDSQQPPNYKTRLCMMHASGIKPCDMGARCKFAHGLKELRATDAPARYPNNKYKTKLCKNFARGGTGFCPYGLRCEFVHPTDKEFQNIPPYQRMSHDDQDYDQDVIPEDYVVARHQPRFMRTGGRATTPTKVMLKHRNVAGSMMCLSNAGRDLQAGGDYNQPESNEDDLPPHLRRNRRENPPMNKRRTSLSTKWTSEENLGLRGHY

[8] = Luminescence Cell-Based Dose Response HTS to Identify Inhibitors of 5'UTR Stem-Loop Driven Prion Protein mRNA Translation in H4 Neuroglioblastoma Cells. [Related pubchem assays: 1827 (Project Summary), 1813 (Primary HTS)]; type: functional
[9] = inhibitors of SNCA 5'UTR-driven reporter translation, confirmation, H4 neuroglioma cells, luminescence (AID 1988); type: functional, cell-based
[10] = inhibitors of firefly luciferase expression or activity, dose response, H4 neuroglioma cells, luminescence (AID 1990); type: functional, cell-based
Cytochrome P450 2C19 = Cytochrome P450 2C19 (Homo sapiens, UniProt P33261); experiment: Cytochrome panel assay with activity outcomes. Panel member name: p450-cyp2c19 Compounds with AC50 equal or less than 10 uM are considered active; type: functional; settings: read-out: AC50
Chain of Cytochrome P450 2C19 (P33261 whole entry): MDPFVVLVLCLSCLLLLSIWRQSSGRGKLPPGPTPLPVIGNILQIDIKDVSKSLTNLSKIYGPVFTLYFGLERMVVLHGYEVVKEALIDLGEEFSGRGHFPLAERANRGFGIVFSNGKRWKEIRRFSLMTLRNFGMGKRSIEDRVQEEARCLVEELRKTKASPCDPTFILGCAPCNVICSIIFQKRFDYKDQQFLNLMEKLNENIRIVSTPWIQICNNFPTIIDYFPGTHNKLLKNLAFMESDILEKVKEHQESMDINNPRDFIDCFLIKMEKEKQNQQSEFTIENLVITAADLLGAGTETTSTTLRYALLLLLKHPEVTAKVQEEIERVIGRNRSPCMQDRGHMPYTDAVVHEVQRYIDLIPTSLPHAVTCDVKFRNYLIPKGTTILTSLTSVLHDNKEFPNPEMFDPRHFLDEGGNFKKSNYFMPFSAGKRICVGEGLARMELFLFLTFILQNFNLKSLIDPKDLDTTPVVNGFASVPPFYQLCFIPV

Cytochrome P450 2D6 = Cytochrome P450 2D6 (Homo sapiens, UniProt P10635);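 further: CYP2D6 member of a cytochrome P450 panel assay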
Chain of Cytochrome P450 2D6 (P10635 whole entry): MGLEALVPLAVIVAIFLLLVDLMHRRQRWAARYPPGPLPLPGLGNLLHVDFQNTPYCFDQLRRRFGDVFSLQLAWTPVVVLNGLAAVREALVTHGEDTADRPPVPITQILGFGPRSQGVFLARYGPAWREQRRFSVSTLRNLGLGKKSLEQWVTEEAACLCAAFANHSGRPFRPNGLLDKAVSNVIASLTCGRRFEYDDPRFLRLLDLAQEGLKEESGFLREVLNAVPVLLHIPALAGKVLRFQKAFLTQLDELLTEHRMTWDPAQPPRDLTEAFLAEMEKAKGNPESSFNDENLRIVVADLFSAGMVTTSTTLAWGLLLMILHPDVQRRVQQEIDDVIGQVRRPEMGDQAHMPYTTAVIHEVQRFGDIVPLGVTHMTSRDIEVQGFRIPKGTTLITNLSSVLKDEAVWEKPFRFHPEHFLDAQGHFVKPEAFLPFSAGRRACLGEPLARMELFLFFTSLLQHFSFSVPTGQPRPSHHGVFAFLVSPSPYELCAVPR

H4 = experiment: Luminescence Cell-Based Dose Response HTS to Identify Activators of 5'UTR Stem-Loop Driven Prion Protein mRNA Translation in H4 Neuroglioblastoma Cells. [Related pubchem assays: 1829 (Project Summary), 1814 (Primary HTS)]; type: functional; settings: Homo sapiens

Chain of Cytochrome P450 3A4 (P08684 whole entry): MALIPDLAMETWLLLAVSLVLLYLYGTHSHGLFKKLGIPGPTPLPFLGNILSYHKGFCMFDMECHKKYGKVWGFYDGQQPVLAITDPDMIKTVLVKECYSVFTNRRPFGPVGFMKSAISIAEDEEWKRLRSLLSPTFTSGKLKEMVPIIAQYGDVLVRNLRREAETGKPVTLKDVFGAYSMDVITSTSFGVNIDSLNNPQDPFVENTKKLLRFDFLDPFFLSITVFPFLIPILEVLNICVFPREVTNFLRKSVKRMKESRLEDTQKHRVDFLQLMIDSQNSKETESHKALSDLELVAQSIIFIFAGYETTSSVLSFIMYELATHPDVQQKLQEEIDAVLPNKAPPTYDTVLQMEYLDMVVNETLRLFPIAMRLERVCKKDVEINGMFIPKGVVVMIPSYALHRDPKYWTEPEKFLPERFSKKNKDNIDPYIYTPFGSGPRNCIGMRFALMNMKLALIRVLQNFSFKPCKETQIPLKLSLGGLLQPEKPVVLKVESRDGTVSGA

| Compound | AC50 (Cytochrome P450 3A4) | EC50 [8] | EC50 [9] | EC50 [10] | further results |
| --- | --- | --- | --- | --- | --- |
| COc1ccc(-c2nc3cnc(N4CCNCC4)nc3n(CCC#N)c2=O)cc1 | 12.6 µM (inconclusive) | – | – | – | AC50 (Cytochrome P450 1A2): 15.8 µM (inconclusive) |
| O=C(Nc1ccc(-c2csc(Nc3cccc(C(F)(F)F)c3)n2)cc1)c1ccccc1 | – | – | – | – | EC50 [1]: 0.859 µM (active); EC50 [2]: 7.93 µM (active); CC50 [3]: 17.2 µM (active); AC50 [4]: 1.54 µM (active) |
| COc1ccc(/C=C\C(=O)Nc2ccccc2C(=O)O)cc1OC | 39.8 µM (inconclusive) | – | – | – | AC50 (Cytochrome P450 2C9): 15.8 µM (inconclusive); AC50 (Cytochrome P450 1A2): 39.8 µM (inconclusive) |
| O=C1C(Cc2ccccc2)NC(=S)N1c1ccccc1 (stereo unspecified) | 2.24 µM (inconclusive) | – | – | – | AC50 (Cytochrome P450 1A2): 2.24 µM (inconclusive) |
| CCOC(=O)C1=C(C)N2C(=C(C#N)[C@@H]1c1ccc(C(=O)OC)cc1)SC[C@@]2(O)C(C)(C)C | – | – | – | – | AC50 [4]: 0.33 µM (active) |
| O=C(/C=C/c1ccc(O)c(O)c1)OC(Cc1ccc(O)c(O)c1)C(=O)O (stereo unspecified) | – | – | – | – | IC50 [5]: 35 µM (active); EC50 [6]: 13.6 µM (active); EC50 [7]: 8.75 µM (active) |
| CC(C)C(=O)Nc1cc2c(cc1C(=O)c1ccccc1)OCCO2 | 22.4 µM (inconclusive) | – | – | – | – |
| O=c1c2[nH]cnc2n(-c2ccc(F)cc2)c(=O)n1Cc1ccccc1 | – | 39.3 µM (active) | > 120 µM (not active) | > 120 µM (not active) | – |
| CCOc1ccc(N(C(C)C(=O)NC(C)CC)S(C)(=O)=O)cc1 (stereo unspecified) | 14.1 µM (inconclusive) | – | – | – | AC50 (Cytochrome P450 2C19): 7.94 µM (inconclusive) |
| Cc1ccc(-c2csc(NC(=S)NC(=O)/C=C/c3ccco3)n2)cc1 | 15.8 µM (inconclusive) | – | – | – | AC50 (Cytochrome P450 2C9): 0.282 µM (inconclusive) |
| CC(C)CCn1cnc2c(c1=O)c1nc3ccccc3nc1n2Cc1ccc2c(c1)OCO2 | – | > 120 µM (not active) | > 120 µM (not active) | > 120 µM (not active) | – |
| COc1cc(/C=N/NC(=O)c2ccc(CN(C)S(=O)(=O)c3ccc(C)cc3)cc2)ccc1O | – | – | – | – | AC50 [4]: 2.5 µM (active) |
| COc1ccc(/C=N/NC(=S)NC2CCS(=O)(=O)C2)cc1OC (stereo unspecified) | 22.4 µM (inconclusive) | – | – | – | – |
| Cc1ccc(C(=O)NC2CCCCCC2)cc1N1CCCC1=O | 25.1 µM (inconclusive) | – | – | – | AC50 (Cytochrome P450 2C9): 25.1 µM (inconclusive) |
| Cc1c(C(=O)N/N=C/c2ccccc2)sc(=S)n1C | 25.1 µM (inconclusive) | – | – | – | AC50 (Cytochrome P450 2D6): 0.01 µM (inconclusive); AC50 (Cytochrome P450 2C19): 25.1 µM (inconclusive) |
| CCS(=O)(=O)c1nc(S(=O)(=O)c2ccc(C)cc2)c(N2CC(C)CC(C)C2)s1 (stereo unspecified) | – | > 120 µM (not active) | > 120 µM (not active) | > 120 µM (not active) | – |
| Cc1cccc(N2CCN(C(=O)CC(NC(=O)c3ccccc3)c3ccccc3)CC2C)c1 (stereo unspecified) | – | > 120 µM (not active) | > 120 µM (not active) | > 120 µM (not active) | – |
| O=C(NCCCN1CCCC1=O)Nc1ccc(F)c(Cl)c1 | 28.2 µM (inconclusive) | – | – | – | AC50 (Cytochrome P450 1A2): 22.4 µM (inconclusive); AC50 (Cytochrome P450 2C19): 39.8 µM (inconclusive) |
| COc1ccc(CN2CCN(Cc3cccn3-c3ncccn3)CC2CCO)c(C)c1C (stereo unspecified) | – | > 120 µM (not active) | 12.1 µM (active) | > 120 µM (not active) | – |
| CCC(C)[C@H](NC(=O)N1CCCC1)C(=O)O (stereo partly specified) | – | > 120 µM (not active) | > 120 µM (not active) | > 120 µM (not active) | – |
| Cc1cc(NCCCn2ccnc2)n2nc(C)c(-c3ccc(Cl)cc3)c2n1 | – | – | – | – | AC50 [4]: 6.35 µM (active) |
| N#Cc1ccc(CN2CCC3(CC2)CCN(C(=O)c2ccncc2)CC3)cc1 | 12.6 µM (inconclusive) | – | – | – | – |
| C=CCC(C)(NCc1ccccc1)c1ccco1 (stereo unspecified) | 15.8 µM (inconclusive) | – | – | – | AC50 (Cytochrome P450 2C9): 0.0355 µM (inconclusive) |
| CCCOc1ccc(NC(=O)CC2C(=O)N(c3ccc(OCC)cc3)C(=S)N2C2CC2)cc1 (stereo unspecified) | – | > 120 µM (not active) | 12.1 µM (active) | > 120 µM (not active) | – |
| Nc1nc(SCc2ccc([N+](=O)[O-])cc2)c2ncn([C@@H]3O[C@@H](CO)[C@@H](O)[C@H]3O)c2n1 | 15.8 µM (inconclusive) | – | – | – | – |
| CCc1c(C)nc(N)n2c(SCC(=O)Nc3ccccc3OC)nnc12 | – | > 120 µM (not active) | > 120 µM (not active) | > 120 µM (not active) | – |
| CCOC(=O)c1ccc(-c2ccc(/C=N/NC(=O)c3cncc(Br)c3)o2)cc1 | – | – | – | – | EC50 (H4): 117 µM (active) |
| S=C(NCc1ccccc1)NCc1ccc(CNC(=S)NCc2ccccc2)cc1 | – | > 120 µM (not active) | > 120 µM (not active) | > 120 µM (not active) | – |
| Nc1ccc(C(=O)n2c3ccccc3c3ccccc32)cc1 | – | 9.6 µM (active) | – | 9.05 µM (active) | – |
| O=C(COCC(=O)Nc1cccc(C(F)(F)F)c1)Nc1cccc(C(F)(F)F)c1 | – | – | – | – | AC50 [4]: 5.16 µM (active) |
